Laboratory results: the kinase profiling compilation of Christmann-Franck et al. (2016)

Tests used:
[1] = test system: ABL1 (human), P00519 [F317I]; assay: KINOMEscan competition binding; settings: compound 10.0 µM
[2] = test system: ABL1 (human), P00519 [F317L]; assay: KINOMEscan competition binding; settings: compound 10.0 µM
BLK (human) = BLK (human) (UniProt P51451); assay: KINOMEscan competition binding; settings: compound 10.0 µM
BMP2K (human) = BMP2K (human) (UniProt Q9NSY1); assay: KINOMEscan competition binding; settings: compound 10.0 µM
CHEK1 (human) = CHEK1 (human) (UniProt O14757); assay: KINOMEscan competition binding; settings: compound 10.0 µM
CSF1R (human) = CSF1R (human) (UniProt P07333); assay: KINOMEscan competition binding; settings: compound 10.0 µM
[3] = test system: EIF2AK4 KD2 (human), Q9P2K8 [S808G]; assay: KINOMEscan competition binding; settings: compound 10.0 µM
FGFR4 (human) = FGFR4 (human) (UniProt P22455); assay: KINOMEscan competition binding; settings: compound 10.0 µM
FLT3 (human) = FLT3 (human) (UniProt P36888); assay: KINOMEscan competition binding; settings: compound 10.0 µM
[4] = test system: FLT3 (human), P36888 [D835H]; assay: KINOMEscan competition binding; settings: compound 10.0 µM
[5] = test system: FLT3 (human), P36888 [K663Q]; assay: KINOMEscan competition binding; settings: compound 10.0 µM
FLT4 (human) = FLT4 (human) (UniProt P35916); assay: KINOMEscan competition binding; settings: compound 10.0 µM
FRK (human) = FRK (human) (UniProt P42685); assay: KINOMEscan competition binding; settings: compound 10.0 µM
GAK (human) = GAK (human) (UniProt O14976); assay: KINOMEscan competition binding; settings: compound 10.0 µM
KIT (human) = KIT (human) (UniProt P10721); assay: KINOMEscan competition binding; settings: compound 10.0 µM
[6] = test system: KIT (human), P10721 [D816V]; assay: KINOMEscan competition binding; settings: compound 10.0 µM
[7] = test system: KIT (human), P10721 [V559D/T670I]; assay: KINOMEscan competition binding; settings: compound 10.0 µM
[8] = test system: KIT (human), P10721 [V559D/V654A]; assay: KINOMEscan competition binding; settings: compound 10.0 µM
[9] = test system: KIT (human), P10721 [V559D]; assay: KINOMEscan competition binding; settings: compound 10.0 µM
MYLK4 (human) = MYLK4 (human) (UniProt Q86YV6); assay: KINOMEscan competition binding; settings: compound 10.0 µM
NEK2 (human) = NEK2 (human) (UniProt P51955); assay: KINOMEscan competition binding; settings: compound 10.0 µM
PDGFRA (human) = PDGFRA (human) (UniProt P16234); assay: KINOMEscan competition binding; settings: compound 10.0 µM
PDGFRB (human) = PDGFRB (human) (UniProt P09619); assay: KINOMEscan competition binding; settings: compound 10.0 µM
PIP5K1A (human) = PIP5K1A (human) (UniProt Q99755); assay: KINOMEscan competition binding; settings: compound 10.0 µM
PLK3 (human) = PLK3 (human) (UniProt Q9H4B4); assay: KINOMEscan competition binding; settings: compound 10.0 µM
PRKD1 (human) = PRKD1 (human) (UniProt Q15139); assay: KINOMEscan competition binding; settings: compound 10.0 µM
PRKD3 (human) = PRKD3 (human) (UniProt O94806); assay: KINOMEscan competition binding; settings: compound 10.0 µM
RIOK1 (human) = RIOK1 (human) (UniProt Q9BRS2); assay: KINOMEscan competition binding; settings: compound 10.0 µM
RIOK3 (human) = RIOK3 (human) (UniProt O14730); assay: KINOMEscan competition binding; settings: compound 10.0 µM
RPS6KA1 KD2 (human) = RPS6KA1 KD2 (human) (UniProt Q15418); assay: KINOMEscan competition binding; settings: compound 10.0 µM
RPS6KA6 KD2 (human) = RPS6KA6 KD2 (human) (UniProt Q9UK32); assay: KINOMEscan competition binding; settings: compound 10.0 µM
SIK2 (human) = SIK2 (human) (UniProt Q9H0K1); assay: KINOMEscan competition binding; settings: compound 10.0 µM
SLK (human) = SLK (human) (UniProt Q9H2G2); assay: KINOMEscan competition binding; settings: compound 10.0 µM
STK33 (human) = STK33 (human) (UniProt Q9BYT3); assay: KINOMEscan competition binding; settings: compound 10.0 µM
TNK1 (human) = TNK1 (human) (UniProt Q13470); assay: KINOMEscan competition binding; settings: compound 10.0 µM
TNK2 (human) = TNK2 (human) (UniProt Q07912); assay: KINOMEscan competition binding; settings: compound 10.0 µM
[10] = target: TYK2 JH2 pseudokinase (human) (UniProt P29597); assay: KINOMEscan competition binding; settings: compound 10.0 µM
ALK (human) = ALK (human) (UniProt Q9UM73); assay: KINOMEscan competition binding; settings: compound 10.0 µM
AURKC (human) = AURKC (human) (UniProt Q9UQB9); assay: KINOMEscan competition binding; settings: compound 10.0 µM
AXL (human) = AXL (human) (UniProt P30530); assay: KINOMEscan competition binding; settings: compound 10.0 µM
CDK16 (human) = CDK16 (human) (UniProt Q00536); assay: KINOMEscan competition binding; settings: compound 10.0 µM
CSNK2A1 (human) = CSNK2A1 (human) (UniProt P68400); assay: KINOMEscan competition binding; settings: compound 10.0 µM
CSNK2A2 (human) = CSNK2A2 (human) (UniProt P19784); assay: KINOMEscan competition binding; settings: compound 10.0 µM
DAPK2 (human) = DAPK2 (human) (UniProt Q9UIK4); assay: KINOMEscan competition binding; settings: compound 10.0 µM
DAPK3 (human) = DAPK3 (human) (UniProt O43293); assay: KINOMEscan competition binding; settings: compound 10.0 µM
HIPK1 (human) = HIPK1 (human) (UniProt Q86Z02); assay: KINOMEscan competition binding; settings: compound 10.0 µM
MAPK10 (human) = MAPK10 (human) (UniProt P53779); assay: KINOMEscan competition binding; settings: compound 10.0 µM
MAPK14 (human) = MAPK14 (human) (UniProt Q16539); assay: KINOMEscan competition binding; settings: compound 10.0 µM
MAPK8 (human) = MAPK8 (human) (UniProt P45983); assay: KINOMEscan competition binding; settings: compound 10.0 µM
MAPK9 (human) = MAPK9 (human) (UniProt P45984); assay: KINOMEscan competition binding; settings: compound 10.0 µM
MERTK (human) = MERTK (human) (UniProt Q12866); assay: KINOMEscan competition binding; settings: compound 10.0 µM
NEK6 (human) = NEK6 (human) (UniProt Q9HC98); assay: KINOMEscan competition binding; settings: compound 10.0 µM
NEK7 (human) = NEK7 (human) (UniProt Q8TDX7); assay: KINOMEscan competition binding; settings: compound 10.0 µM
PIM1 (human) [11] = target: PIM1 (human) (UniProt P11309); assay: KINOMEscan competition binding; settings: compound 10.0 µM
PIM2 (human) [12] = target: PIM2 (human) (UniProt Q9P1W9); assay: KINOMEscan competition binding; settings: compound 10.0 µM
PIM3 (human) = PIM3 (human) (UniProt Q86V86); assay: KINOMEscan competition binding; settings: compound 10.0 µM
PLK4 (human) = PLK4 (human) (UniProt O00444); assay: KINOMEscan competition binding; settings: compound 10.0 µM
SRPK1 (human) = SRPK1 (human) (UniProt Q96SB4); assay: KINOMEscan competition binding; settings: compound 10.0 µM
SRPK3 (human) = SRPK3 (human) (UniProt Q9UPE1); assay: KINOMEscan competition binding; settings: compound 10.0 µM
STK17A (human) = STK17A (human) (UniProt Q9UEE5); assay: KINOMEscan competition binding; settings: compound 10.0 µM
STK17B (human) = STK17B (human) (UniProt O94768); assay: KINOMEscan competition binding; settings: compound 10.0 µM
STK3 (human) = STK3 (human) (UniProt Q13188); assay: KINOMEscan competition binding; settings: compound 10.0 µM
TGFBR2 (human) = TGFBR2 (human) (UniProt P37173); assay: KINOMEscan competition binding; settings: compound 10.0 µM
PIM1 (human) [13] = target: PIM1 (human) (UniProt P11309); assay: SelectScreen, TR FRET
PIM2 (human) [14] = target: PIM2 (human) (UniProt Q9P1W9); assay: SelectScreen, TR FRET

Sequence of TYK2 JH2 pseudokinase (human) (P29597 whole entry, looked up): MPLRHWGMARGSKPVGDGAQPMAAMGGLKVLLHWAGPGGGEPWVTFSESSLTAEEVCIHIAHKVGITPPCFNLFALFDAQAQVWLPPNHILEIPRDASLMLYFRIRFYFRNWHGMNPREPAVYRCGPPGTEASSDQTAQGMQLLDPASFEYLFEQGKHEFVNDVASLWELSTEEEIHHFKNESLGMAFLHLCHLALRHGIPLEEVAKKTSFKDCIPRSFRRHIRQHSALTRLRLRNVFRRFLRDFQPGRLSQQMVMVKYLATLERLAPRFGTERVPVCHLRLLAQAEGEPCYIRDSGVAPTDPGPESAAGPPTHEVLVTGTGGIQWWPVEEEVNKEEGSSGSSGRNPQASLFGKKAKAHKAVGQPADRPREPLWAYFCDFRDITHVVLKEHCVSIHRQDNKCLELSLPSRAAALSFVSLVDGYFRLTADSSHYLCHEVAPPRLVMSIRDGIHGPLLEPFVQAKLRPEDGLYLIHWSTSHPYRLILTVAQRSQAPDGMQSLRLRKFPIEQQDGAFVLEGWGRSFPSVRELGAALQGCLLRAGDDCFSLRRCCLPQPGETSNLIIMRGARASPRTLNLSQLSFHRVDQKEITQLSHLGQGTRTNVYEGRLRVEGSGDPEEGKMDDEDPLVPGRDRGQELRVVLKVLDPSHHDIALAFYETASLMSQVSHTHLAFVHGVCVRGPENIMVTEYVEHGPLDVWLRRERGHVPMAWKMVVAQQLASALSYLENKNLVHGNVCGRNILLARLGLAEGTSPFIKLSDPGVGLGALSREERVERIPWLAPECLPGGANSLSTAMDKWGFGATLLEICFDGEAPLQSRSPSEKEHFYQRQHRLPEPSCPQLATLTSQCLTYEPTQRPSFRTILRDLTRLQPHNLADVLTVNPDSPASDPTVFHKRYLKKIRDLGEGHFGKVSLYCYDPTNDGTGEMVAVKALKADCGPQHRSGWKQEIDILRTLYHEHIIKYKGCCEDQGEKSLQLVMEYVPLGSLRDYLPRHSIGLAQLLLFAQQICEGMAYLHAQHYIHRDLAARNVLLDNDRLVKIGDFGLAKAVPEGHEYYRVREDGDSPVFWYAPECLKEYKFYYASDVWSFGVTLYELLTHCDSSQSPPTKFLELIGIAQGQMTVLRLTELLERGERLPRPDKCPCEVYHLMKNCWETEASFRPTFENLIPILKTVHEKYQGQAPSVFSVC
Sequence of FLT4 (human) (P35916 whole entry, looked up): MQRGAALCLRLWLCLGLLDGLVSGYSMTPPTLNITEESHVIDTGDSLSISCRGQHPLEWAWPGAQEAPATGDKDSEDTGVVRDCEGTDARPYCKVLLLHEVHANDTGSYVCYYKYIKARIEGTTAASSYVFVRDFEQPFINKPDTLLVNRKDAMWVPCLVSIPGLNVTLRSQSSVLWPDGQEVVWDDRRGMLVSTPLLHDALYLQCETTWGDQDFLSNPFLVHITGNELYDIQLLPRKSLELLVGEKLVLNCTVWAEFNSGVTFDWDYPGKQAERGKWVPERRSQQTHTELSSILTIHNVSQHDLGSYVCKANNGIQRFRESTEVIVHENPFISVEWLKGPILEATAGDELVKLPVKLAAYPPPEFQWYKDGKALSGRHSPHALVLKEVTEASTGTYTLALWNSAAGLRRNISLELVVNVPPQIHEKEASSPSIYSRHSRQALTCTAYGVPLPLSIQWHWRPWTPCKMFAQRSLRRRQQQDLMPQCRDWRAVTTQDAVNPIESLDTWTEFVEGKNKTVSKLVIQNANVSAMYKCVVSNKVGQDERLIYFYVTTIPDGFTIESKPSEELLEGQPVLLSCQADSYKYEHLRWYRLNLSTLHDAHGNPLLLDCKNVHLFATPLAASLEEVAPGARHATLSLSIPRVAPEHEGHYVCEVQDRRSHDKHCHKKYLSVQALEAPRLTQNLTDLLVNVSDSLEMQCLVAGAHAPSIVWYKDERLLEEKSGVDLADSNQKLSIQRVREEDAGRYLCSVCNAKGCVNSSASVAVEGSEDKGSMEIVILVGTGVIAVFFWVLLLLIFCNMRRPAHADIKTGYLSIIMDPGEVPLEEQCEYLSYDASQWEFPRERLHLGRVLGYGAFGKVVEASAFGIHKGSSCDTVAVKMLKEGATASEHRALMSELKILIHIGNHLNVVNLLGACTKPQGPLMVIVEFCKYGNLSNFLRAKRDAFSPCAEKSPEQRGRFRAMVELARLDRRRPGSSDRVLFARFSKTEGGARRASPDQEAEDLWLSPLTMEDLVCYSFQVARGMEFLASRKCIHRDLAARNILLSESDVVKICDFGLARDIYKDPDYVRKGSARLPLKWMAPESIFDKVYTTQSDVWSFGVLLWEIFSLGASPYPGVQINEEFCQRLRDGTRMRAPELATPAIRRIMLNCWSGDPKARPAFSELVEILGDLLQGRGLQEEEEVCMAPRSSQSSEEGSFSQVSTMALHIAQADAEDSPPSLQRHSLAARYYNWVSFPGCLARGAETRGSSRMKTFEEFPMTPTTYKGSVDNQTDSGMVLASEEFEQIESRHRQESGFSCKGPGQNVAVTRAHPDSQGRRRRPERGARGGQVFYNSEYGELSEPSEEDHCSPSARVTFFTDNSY
Sequence of RIOK3 (human) (O14730 whole entry, looked up): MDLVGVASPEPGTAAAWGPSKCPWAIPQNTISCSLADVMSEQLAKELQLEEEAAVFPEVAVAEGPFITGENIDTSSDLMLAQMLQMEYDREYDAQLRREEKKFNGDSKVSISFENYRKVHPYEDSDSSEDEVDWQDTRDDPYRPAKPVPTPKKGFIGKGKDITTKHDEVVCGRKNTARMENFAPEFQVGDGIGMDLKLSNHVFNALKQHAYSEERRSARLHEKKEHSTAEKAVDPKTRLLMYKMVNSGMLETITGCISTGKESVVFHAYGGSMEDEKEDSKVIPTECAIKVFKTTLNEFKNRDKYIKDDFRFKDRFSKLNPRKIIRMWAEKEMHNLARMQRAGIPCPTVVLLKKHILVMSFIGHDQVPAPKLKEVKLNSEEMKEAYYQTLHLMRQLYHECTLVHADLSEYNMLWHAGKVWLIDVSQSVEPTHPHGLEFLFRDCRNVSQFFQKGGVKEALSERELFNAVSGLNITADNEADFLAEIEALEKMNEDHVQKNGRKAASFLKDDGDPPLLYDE
Sequence of PIM1 (human) (P11309 whole entry, looked up): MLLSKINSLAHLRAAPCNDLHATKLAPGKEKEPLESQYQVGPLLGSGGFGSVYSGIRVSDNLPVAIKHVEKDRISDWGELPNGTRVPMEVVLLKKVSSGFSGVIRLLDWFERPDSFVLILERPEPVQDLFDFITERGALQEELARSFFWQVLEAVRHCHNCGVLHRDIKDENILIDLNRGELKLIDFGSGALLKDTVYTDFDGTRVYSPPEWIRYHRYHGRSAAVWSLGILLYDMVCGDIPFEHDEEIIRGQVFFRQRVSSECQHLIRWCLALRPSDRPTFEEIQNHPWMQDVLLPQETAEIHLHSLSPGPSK
Sequence of GAK (human) (O14976 whole entry, looked up): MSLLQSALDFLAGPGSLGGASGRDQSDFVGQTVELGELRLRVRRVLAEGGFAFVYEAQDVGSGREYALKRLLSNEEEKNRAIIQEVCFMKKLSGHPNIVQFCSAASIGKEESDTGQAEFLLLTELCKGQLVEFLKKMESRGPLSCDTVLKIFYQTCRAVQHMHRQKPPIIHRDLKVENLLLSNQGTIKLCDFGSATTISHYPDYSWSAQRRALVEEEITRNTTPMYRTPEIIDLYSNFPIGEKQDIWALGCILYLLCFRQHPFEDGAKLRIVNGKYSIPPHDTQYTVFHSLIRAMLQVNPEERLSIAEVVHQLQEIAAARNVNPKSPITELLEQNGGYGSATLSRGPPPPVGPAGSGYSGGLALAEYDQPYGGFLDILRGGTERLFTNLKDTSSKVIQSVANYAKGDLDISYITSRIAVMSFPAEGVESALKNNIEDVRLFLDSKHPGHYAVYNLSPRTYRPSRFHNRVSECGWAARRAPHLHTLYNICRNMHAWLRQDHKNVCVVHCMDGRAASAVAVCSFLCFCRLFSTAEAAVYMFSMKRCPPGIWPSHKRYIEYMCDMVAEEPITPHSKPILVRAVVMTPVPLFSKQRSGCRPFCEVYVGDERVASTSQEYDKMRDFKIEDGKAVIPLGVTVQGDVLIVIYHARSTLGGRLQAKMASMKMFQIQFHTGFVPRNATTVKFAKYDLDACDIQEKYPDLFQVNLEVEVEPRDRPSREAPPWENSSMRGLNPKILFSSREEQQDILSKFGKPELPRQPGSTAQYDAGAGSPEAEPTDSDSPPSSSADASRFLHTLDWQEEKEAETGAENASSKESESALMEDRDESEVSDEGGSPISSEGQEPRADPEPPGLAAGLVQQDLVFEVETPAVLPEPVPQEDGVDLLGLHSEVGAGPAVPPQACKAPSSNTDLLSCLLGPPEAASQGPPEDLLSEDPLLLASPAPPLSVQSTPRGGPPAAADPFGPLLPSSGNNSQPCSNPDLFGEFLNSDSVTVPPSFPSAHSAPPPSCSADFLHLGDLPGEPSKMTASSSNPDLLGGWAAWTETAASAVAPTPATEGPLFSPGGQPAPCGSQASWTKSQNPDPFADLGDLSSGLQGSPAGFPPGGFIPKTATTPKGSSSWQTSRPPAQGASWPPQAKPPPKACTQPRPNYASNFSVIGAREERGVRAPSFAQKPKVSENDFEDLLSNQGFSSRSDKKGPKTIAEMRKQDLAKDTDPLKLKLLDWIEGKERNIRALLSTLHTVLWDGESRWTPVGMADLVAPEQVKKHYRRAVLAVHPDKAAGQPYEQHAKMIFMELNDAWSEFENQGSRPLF
Sequence of PIM2 (human) (Q9P1W9 whole entry, looked up): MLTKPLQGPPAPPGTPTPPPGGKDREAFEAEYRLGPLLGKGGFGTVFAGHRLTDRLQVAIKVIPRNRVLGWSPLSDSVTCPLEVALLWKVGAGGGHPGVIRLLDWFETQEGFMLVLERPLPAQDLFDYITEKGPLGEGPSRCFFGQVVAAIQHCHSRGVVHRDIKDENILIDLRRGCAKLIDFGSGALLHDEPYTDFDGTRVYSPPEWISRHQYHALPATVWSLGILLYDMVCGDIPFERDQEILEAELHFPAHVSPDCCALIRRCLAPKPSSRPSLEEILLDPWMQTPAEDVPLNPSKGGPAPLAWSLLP

COc1cc(N2CCN(C)CC2)ccc1Nc1ncc2c(n1)N1CCC[C@H]1CC(=O)N2
kinase still bound, per cent of control [1]: 13% | kinase still bound, per cent of control [2]: 19% | kinase still bound, per cent of control (BLK (human)): 23% | kinase still bound, per cent of control (BMP2K (human)): 29% | kinase still bound, per cent of control (CHEK1 (human)): 6% | kinase still bound, per cent of control (CSF1R (human)): 0.8% | kinase still bound, per cent of control [3]: 21% | kinase still bound, per cent of control (FGFR4 (human)): 17% | kinase still bound, per cent of control (FLT3 (human)): 11% | kinase still bound, per cent of control [4]: 27% | kinase still bound, per cent of control [5]: 19% | kinase still bound, per cent of control (FLT4 (human)): 33% | kinase still bound, per cent of control (FRK (human)): 8.2% | kinase still bound, per cent of control (GAK (human)): 0.85% | kinase still bound, per cent of control (KIT (human)): 0% | kinase still bound, per cent of control [6]: 12% | kinase still bound, per cent of control [7]: 33% | kinase still bound, per cent of control [8]: 8.4% | kinase still bound, per cent of control [9]: 0% | kinase still bound, per cent of control (MYLK4 (human)): 7.8% | kinase still bound, per cent of control (NEK2 (human)): 24% | kinase still bound, per cent of control (PDGFRA (human)): 1.8% | kinase still bound, per cent of control (PDGFRB (human)): 0.05% | kinase still bound, per cent of control (PIP5K1A (human)): 11% | kinase still bound, per cent of control (PLK3 (human)): 9.5% | kinase still bound, per cent of control (PRKD1 (human)): 29% | kinase still bound, per cent of control (PRKD3 (human)): 30% | kinase still bound, per cent of control (RIOK1 (human)): 21% | kinase still bound, per cent of control (RIOK3 (human)): 31% | kinase still bound, per cent of control (RPS6KA1 KD2 (human)): 14% | kinase still bound, per cent of control (RPS6KA6 KD2 (human)): 2% | kinase still bound, per cent of control (SIK2 (human)): 18% | kinase still bound, per cent of control (SLK (human)): 31% | kinase still bound, per cent of control (STK33 (human)): 12% | kinase still bound, per cent of control (TNK1 (human)): 25% | kinase still bound, per cent of control (TNK2 (human)): 8.6% | kinase still bound, per cent of control [10]: 27%

O=C1NC(=S)S/C1=C\c1ccc(-c2cccc3ccccc23)o1
kinase still bound, per cent of control (ALK (human)): 19% | kinase still bound, per cent of control (AURKC (human)): 27% | kinase still bound, per cent of control (AXL (human)): 29% | kinase still bound, per cent of control (CDK16 (human)): 1.4% | kinase still bound, per cent of control (CSNK2A1 (human)): 8% | kinase still bound, per cent of control (CSNK2A2 (human)): 12% | kinase still bound, per cent of control (DAPK2 (human)): 17% | kinase still bound, per cent of control (DAPK3 (human)): 22% | kinase still bound, per cent of control [4]: 34% | kinase still bound, per cent of control (FLT4 (human)): 25% | kinase still bound, per cent of control (GAK (human)): 28% | kinase still bound, per cent of control (HIPK1 (human)): 3.7% | kinase still bound, per cent of control (MAPK10 (human)): 30% | kinase still bound, per cent of control (MAPK14 (human)): 33% | kinase still bound, per cent of control (MAPK8 (human)): 30% | kinase still bound, per cent of control (MAPK9 (human)): 9.8% | kinase still bound, per cent of control (MERTK (human)): 20% | kinase still bound, per cent of control (NEK6 (human)): 26% | kinase still bound, per cent of control (NEK7 (human)): 27% | kinase still bound, per cent of control (PIM1 (human) [11]): 3% | kinase still bound, per cent of control (PIM2 (human) [12]): 0.8% | kinase still bound, per cent of control (PIM3 (human)): 2.6% | kinase still bound, per cent of control (PLK4 (human)): 1.6% | kinase still bound, per cent of control (RIOK3 (human)): 30% | kinase still bound, per cent of control (SRPK1 (human)): 32% | kinase still bound, per cent of control (SRPK3 (human)): 33% | kinase still bound, per cent of control (STK17A (human)): 1.8% | kinase still bound, per cent of control (STK17B (human)): 3.6% | kinase still bound, per cent of control (STK3 (human)): 34% | kinase still bound, per cent of control (TGFBR2 (human)): 14% | kinase still bound, per cent of control [10]: 17% | IC50 (PIM1 (human) [13]): 1.62 µM | IC50 (PIM2 (human) [14]): 1.1 µM
